In patent US20230183243A1, “HETEROARYL DERIVATIVES AND PHARMACEUTICAL COMPOSITION COMPRISING SAME AS ACTIVE INGREDIENT” (VORONOI INC., priority 2019, published 2023) one finds GI50 and IC50 data, which are given here for 19 molecules.

pIC50: −log10 of the molar value. Bounds are passed on as bounds.

The test system of one test is MDA-MB-231 cells. In words: Inhibition of proliferation of triple-negative breast cancer cells, CellTiter-Glo. The class given is cell-based. The conditions noted are these: Homo sapiens, 120 h; MDA-MB-231, cultured for 5 days. Summed up:
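MDA-MB-231 cells pre-cultured 24 h (5% CO2, 37 °C), then exposed to compound for 5 days at 12 three-fold dilutions, final 10 μM to 0.05 nM. Viability read by CellTiter-Glo luminescence after 10 min at 37 °C; growth inhibition calculated relative to untreated solvent-control cells.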

A further test relates to SHP-77. The test can be described thus: Inhibition of proliferation of small cell lung cancer cells, CellTiter-Glo. The class given is cell-based. The conditions noted are these: Homo sapiens, SHP77, 120 h; SHP-77, cultured for 5 days. Summed up: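 SHP-77 cells at 2,000–3,000 cells/well, cultured 24 h at 37° C, 5% CO2, then given 12 threefold compound dilutions, final 10 μM to 0.05 nM, for 5 days. Viability by CellTiter-Glo luminescence relative to solvent control. GI50 from concentration–response.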
A general note: In ATP-based viability assays light output follows the ATP content of the culture.

In another test the target is T1, TTK (Homo sapiens, UniProt P33981).
T1 sequence (P33981 1-857): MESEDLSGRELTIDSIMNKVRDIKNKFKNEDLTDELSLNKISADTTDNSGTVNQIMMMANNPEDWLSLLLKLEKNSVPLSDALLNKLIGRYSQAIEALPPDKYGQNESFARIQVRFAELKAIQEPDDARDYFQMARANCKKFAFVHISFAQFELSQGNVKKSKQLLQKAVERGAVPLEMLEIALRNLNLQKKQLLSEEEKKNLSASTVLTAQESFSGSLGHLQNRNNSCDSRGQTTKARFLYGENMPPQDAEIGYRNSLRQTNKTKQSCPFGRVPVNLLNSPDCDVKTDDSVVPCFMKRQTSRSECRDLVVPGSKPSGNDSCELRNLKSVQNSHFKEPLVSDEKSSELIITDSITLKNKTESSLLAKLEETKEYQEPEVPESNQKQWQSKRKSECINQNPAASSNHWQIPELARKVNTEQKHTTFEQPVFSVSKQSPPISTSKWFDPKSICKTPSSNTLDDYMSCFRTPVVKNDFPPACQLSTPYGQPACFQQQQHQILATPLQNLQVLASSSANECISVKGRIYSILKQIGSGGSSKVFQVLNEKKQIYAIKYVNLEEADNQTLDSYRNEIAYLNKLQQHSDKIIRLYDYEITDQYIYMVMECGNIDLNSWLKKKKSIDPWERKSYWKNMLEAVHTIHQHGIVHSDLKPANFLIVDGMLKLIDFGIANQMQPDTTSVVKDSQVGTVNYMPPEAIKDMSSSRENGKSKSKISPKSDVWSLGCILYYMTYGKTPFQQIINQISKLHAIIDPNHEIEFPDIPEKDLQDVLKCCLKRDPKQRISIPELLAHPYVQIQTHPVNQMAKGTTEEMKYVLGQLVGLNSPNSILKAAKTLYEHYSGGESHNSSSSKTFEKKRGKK
The test can be described thus: TTK enzyme activity, ADP-Glo kinase assay. To be noted: purified human TTK, ATP 10 μM, 25° C., 2 hours. On the set-up: purchased SignalChem T20-10G. The class given is biochemical. Summed up:
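ADP-Glo read-out; percent inhibition at each compound concentration was relative to the solvent-only control. The reactions contained 25 ng enzyme, 0.2 μg substrate and 10 μM ATP in 40 mM Tris-HCl pH 7.4 with 20 mM MgCl2, 0.5 mg/mL BSA and 50 μM DTT, and ran 2 h at 25 °C.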
(In ADP-Glo the light output rises with the ADP produced.)

As usually defined, the GI50 is the concentration that inhibits growth by half. Low values mean greater sensitivity of the cells, high ones lower sensitivity of the cells. For orientation: pIC50 means the negative decadic logarithm of the IC50, by convention in mol/L. A low value points to a high IC50. On to `COc1cc(Nc2nc(NC3CCCCC3)c3c(C#N)c[nH]c3n2)ccc1-c1ccnn1C` [Example 121, 4-(cyclohexylamino)-2-((3-methoxy-4-(1-methyl-1H-pyrazol-5-yl)phenyl)amino)-7H-pyrrolo[2,3-d] pyrimidine-5-carbonitrile], for which the GI50 with MDA-MB-231 cells and in the test on SHP-77 was less than 100 nM throughout. In addition, on TTK, the pIC50 was greater than 7.30.
Consider `COc1cc(-c2ccnn2C)c(F)cc1Nc1nc(NC2CCOCC2)c2c(C#N)c[nH]c2n1` [Example 122, 2-((5-fluoro-2-methoxy-4-(1-methyl-1H-pyrazol-5-yl)phenyl)amino)-4-((tetrahydro-2H-pyran-4-yl)amino)-7H-pyrrolo[2,3-d] pyrimidine-5-carbonitrile], for which the GI50 in the test with MDA-MB-231 cells and in the test with SHP-77 was less than 100 nM in each case. Besides, on TTK, the pIC50 was greater than 7.30.
For `COc1cc(-c2c(C)noc2C)c(F)cc1Nc1nc(NC2CCCCC2)c2c(C#N)c[nH]c2n1` [Example 123, 4-(cyclohexylamino)-2-((4-(3,5-dimethylisoxazol-4-yl)-5-fluoro-2-methoxyphenyl)amino)-7H-pyrrolo[2,3-d] pyrimidine-5-carbonitrile], the concentration for 50% growth inhibition (GI50) with MDA-MB-231 cells is greater than 1000 nM; with SHP-77, 100 to 1000 nM. The molecule further gave a negative-log IC50 (pIC50) on TTK of 6.70 to 7.30.
Consider `COc1cc(-c2cnn(C)c2)c(F)cc1Nc1nc(NC2CCOCC2)c2c(C#N)c[nH]c2n1` [Example 124, 2-((5-fluoro-2-methoxy-4-(1-methyl-1H-pyrazol-4-yl)phenyl)amino)-4-((tetrahydro-2H-pyran-4-yl)amino)-7H-pyrrolo[2,3-d] pyrimidine-5-carbonitrile], for which the GI50 with MDA-MB-231 cells and in the test with SHP-77 was less than 100 nM throughout. The pIC50 against TTK was greater than 7.30.
On to `COc1cc(-c2cnn(C)c2)c(F)cc1Nc1nc(NC2CCCC2)c2c(C#N)c[nH]c2n1` [Example 125, 4-(cyclopentylamino)-2-((5-fluoro-2-methoxy-4-(1-methyl-1H-pyrazol-4-yl)phenyl)amino)-7H-pyrrolo[2,3-d] pyrimidine-5-carbonitrile], for which the GI50 with MDA-MB-231 cells is less than 100 nM; in the test on SHP-77 it was 100 to 1000 nM. The molecule also had a negative logarithm of the IC50 (pIC50) against TTK greater than 7.30.
With `COc1cc(-c2cnn(C)c2)c(F)cc1Nc1nc(NC2CCCCC2)c2c(C#N)c[nH]c2n1` [Example 126, 4-(cyclohexylamino)-2-((5-fluoro-2-methoxy-4-(1-methyl-1H-pyrazol-4-yl)phenyl)amino)-7H-pyrrolo[2,3-d] pyrimidine-5-carbonitrile], the GI50 in the test on MDA-MB-231 cells and in the test on SHP-77 was greater than 1000 nM throughout. Besides, the pIC50 on TTK is greater than 7.30.
With `COc1cc(-c2ccnn2C)ccc1Nc1nc(NC2CCCC2)c2c(Cl)c[nH]c2n1` [Example 127, 5-chloro-N^4-cyclopentyl-N^2-(2-methoxy-4-(1-methyl-1H-pyrazol-5-yl)phenyl)-7H-pyrrolo[2,3-d] pyrimidine-2,4-diamine], the GI50 in the test with MDA-MB-231 cells and in the test with SHP-77 was less than 100 nM each time. This molecule also had a pIC50 on TTK of 6.70 to 7.30.
With `Cn1nccc1-c1ccc(Nc2nc(NC3CCCC3)c3c(Cl)c[nH]c3n2)c2c1OCCO2` [Example 128, 5-chloro-N^4-cyclopentyl-N^2-(8-(1-methyl-1H-pyrazol-5-yl)-2,3-dihydrobenzo[b][1,4]dioxin-5-yl)-7H-pyrrolo[2,3-d] pyrimidine-2,4-diamine], the results for the concentration for 50% growth inhibition (GI50) in the test with MDA-MB-231 cells and with SHP-77 were 100 to 1000 nM and less than 100 nM, respectively. On TTK, this molecule showed a pIC50 of 6.70 to 7.30.
On the same counts, the results for `COc1cc(-c2ccnn2C)ccc1Nc1nc(C2=CCCCC2)c2c(C#N)c[nH]c2n1` [Example 129, 4-(cyclohex-1-en-1-yl)-2-((2-methoxy-4-(1-methyl-1H-pyrazol-5-yl)phenyl)amino)-7H-pyrrolo[2,3-d] pyrimidine-5-carbonitrile] are 100 to 1000 nM, 100 to 1000 nM and 6.00 to 6.70.
On the same counts, the results for `Cn1nccc1-c1ccc(Nc2nc(C3=CCCCC3)c3c(C#N)c[nH]c3n2)c2c1OCCO2` [Example 130, 4-(cyclohex-1-en-1-yl)-2-((8-(1-methyl-1H-pyrazol-5-yl)-2,3-dihydrobenzo[b][1,4]dioxin-5-yl)amino)-7H-pyrrolo[2,3-d] pyrimidine-5-carbonitrile] are 100 to 1000 nM, 100 to 1000 nM and 6.70 to 7.30.
The like results for `COc1cc(-c2c(C)noc2C)ccc1Nc1nc(NC2CCOCC2)c2c(C(F)(F)F)c[nH]c2n1` [Example 131, N^2-(4-(3,5-dimethylisoxazol-4-yl)-2-methoxyphenyl)-N^4-(tetrahydro-2H-pyran-4-yl)-5-(trifluoromethyl)-7H-pyrrolo[2,3-d] pyrimidine-2,4-diamine] were, in that order, less than 100 nM, less than 100 nM and 6.70 to 7.30.
With `COc1cc(-c2ccnn2C)ccc1Nc1nc(NC2CCCC2)c2c(C(F)(F)F)c[nH]c2n1` [Example 132, N^4-cyclopentyl-N^2-(2-methoxy-4-(1-methyl-1H-pyrazol-5-yl)phenyl)-5-(trifluoromethyl)-7H-pyrrolo[2,3-d] pyrimidine-2,4-diamine], the GI50 with MDA-MB-231 cells and with SHP-77 was 100 to 1000 nM each time. The molecule further had a pIC50 on TTK of 6.70 to 7.30.
With `Cn1nccc1-c1ccc(Nc2nc(NC3CCCC3)c3c(C(F)(F)F)c[nH]c3n2)c2c1OCCO2` [Example 133, N^4-cyclopentyl-N^2-(8-(1-methyl-1H-pyrazol-5-yl)-2,3-dihydrobenzo[b][1,4]dioxin-5-yl)-5-(trifluoromethyl)-7H-pyrrolo[2,3-d] pyrimidine-2,4-diamine], the GI50 in the test on MDA-MB-231 cells and in the test on SHP-77 was 100 to 1000 nM throughout. The same molecule showed a pIC50 against TTK of 6.00 to 6.70.
As to `COc1cc(-c2ccccc2)ccc1Nc1nc(NC2CCOCC2)c2c(C#N)c[nH]c2n1` [Example 134, 2-((3-methoxy-[1,1 biphenyl]-4-yl)amino)-4-((tetrahydro-2H-pyran-4-yl)amino)-7H-pyrrolo[2,3-d] pyrimidine-5-carbonitrile], the GI50 in the test on MDA-MB-231 cells and in the test with SHP-77 was less than 100 nM in each case. This molecule had a pIC50 on TTK greater than 7.30.
In the case of `COc1cc(Nc2nc(NC3CCCC3)c3c(C#N)c[nH]c3n2)ccc1-c1cnn(C)c1` [Example 136, 4-(cyclopentylamino)-2-((3-methoxy-4-(1-methyl-1H-pyrazol-4-yl)phenyl)amino)-7H-pyrrolo[2,3-d] pyrimidine-5-carbonitrile], the GI50 in the test with MDA-MB-231 cells and in the test on SHP-77 was less than 100 nM throughout. Also, the pIC50 against TTK was 6.70 to 7.30.
As to `COc1cc(Nc2nc(NC3CCCCC3)c3c(C#N)c[nH]c3n2)ccc1-c1cnn(C)c1` [Example 137, 4-(cyclohexylamino)-2-((3-methoxy-4-(1-methyl-1H-pyrazol-4-yl)phenyl)amino)-7H-pyrrolo[2,3-d] pyrimidine-5-carbonitrile], the GI50 in the test on MDA-MB-231 cells and in the test on SHP-77 was less than 100 nM each time. On TTK, this molecule gave a pIC50 of 6.70 to 7.30.
With `COc1cc(Nc2nc(NC3CCOCC3)c3c(C#N)c[nH]c3n2)ccc1-c1c(C)noc1C` [Example 138], the GI50 in the test on MDA-MB-231 cells and with SHP-77 was less than 100 nM throughout. The molecule also gave a pIC50 against TTK greater than 7.30.
Consider `COc1cc(Nc2nc(NC3CCCC3)c3c(C#N)c[nH]c3n2)ccc1-c1c(C)noc1C` [Example 139, 4-(cyclopentylamino)-2-((4-(3,5-dimethylisoxazol-4-yl)-3-methoxyphenyl)amino)-7H-pyrrolo[2,3-d] pyrimidine-5-carbonitrile], for which the GI50 was 100 to 1000 nM in the test with MDA-MB-231 cells and less than 100 nM with SHP-77. The pIC50 on TTK is 6.00 to 6.70.
On the same counts, the results for `COc1cc(Nc2nc(NC3CCCCC3)c3c(C#N)c[nH]c3n2)ccc1-c1c(C)noc1C` [Example 140, 4-(cyclohexylamino)-2-((4-(3,5-dimethylisoxazol-4-yl)-3-methoxyphenyl)amino)-7H-pyrrolo[2,3-d] pyrimidine-5-carbonitrile] are less than 100 nM, less than 100 nM and 6.00 to 6.70.
